From patent publication US10208056B2, “Condensed tricyclic compounds as protein kinase inhibitors” (FUNDACIÓN DEL SECTOR PÚBLICO ESTATAL CENTRO NACIONAL DE …, priority 2015, dated 2019)

Experiments:
[1] = tested on: SW620 human colon cancer xenografts; assay: In vivo target modulation studies (P-STAT1 S727 in tumors); design: species or system mice; details: single oral dose 5 mg/kg; tumors sampled 1, 4, 8 and 24 h
Experimental: The in vivo potency of the compounds was measured determining target modulation in human colon xenografts. Eight weeks old female athymic nude mice (Harlan Sprague Dawley Inc) are subcutaneously grafted with 10*10^6 SW620 human colon cancer cells. When the tumors reach a size of 200-400 mm^3 the mice are dosed orally with 5 mg/kg of Example 43 or vehicle. Tumors are excised 1, 4, 8 and 24 h after administration (n=3 mice per time point) and are processed for western blot and for HPLC/MS/MS in order to determine the concentration for Example 43 in the tumor. […] The supernatants are removed and protein concentration is determined by Bradford method (Bio-Rad Protein Assay). […] 30-60 μg of total proteins extracts are analyzed by western blot for STAT1P/STAT1 modulation as has been described in the cellular CDK8 inhibition assay. […] Specific solid phase extraction methods as well as LC-MS/MS analysis and quantification methods were developed, reaching LLOQs of 1 ng/ml. […]

panel of 468 kinases = assay: KINOMEscan kinase panel selectivity score; type: binding
Description: Compounds of the invention may have the advantage that they are effective inhibitors of protein kinases (e.g. CDK8 and/or haspin). […] For instance, the compounds of the invention may be selective inhibitors of certain protein or lipid kinases. […] Compounds that are selective inhibitors may be identified by screening in a 453-468 kinases panel (KINOMEscan™ from DiscoveRx). For example, selective inhibitors may show a selectivity score of S(20)<0.05.
Selectivity Score (or S-score) is a quantitative measure of a compound's selectivity. It is calculated by dividing the number of kinases to which a compound binds by the total number of distinct kinases tested (i.e. S=Number of hits/Number of assays).

SW620 = assay: Combination assay, SW620; type: cell-based, human
In short: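 Cells treated with example compounds combined with chemotherapeutic agents, proliferation read by CellTiter-Glo. Combination index from the Chou–Talalay method (CI <0.8 synergy, 0.8–1.2 additivity, >1.2 antagonism); EC50 of the combination also derived alongside single-agent EC50s.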

HCT116 = assay: Combination assay, HCT116; type: cell-based
Experimental: (§1) The combination index (CI) of combinations of certain example compounds and various chemotherapeutic agents in the CellTitetI-Glo® in vitro cell proliferation assays may be tested. A combination index score is calculated by the Chou and Talalay method (CalcuSyn software, Biosoft). The strength of synergy is scored using the ranking system Chou and Talalay: CI less than 0.8 indicates synergy, CI between 0.8 and 1.2 indicates additivity and CI greater than 1.2 indicates antagonism.
(§2) The EC50 values of representative combinations are also calculated. The individually measured EC50 values of the chemotherapeutic agent and the example compounds are compared to the EC50 value of the combination. The cell lines are characterised by tumor type. Combination assays are performed as described in: “Pim 1 kinase inhibitor ETP-45299 suppresses cellular proliferation and synergizes with PI3K inhibition”. Blanco-Aparicio, Carmen; Collazo, Ana Maria Garcia; Oyarzabal, Julen; Leal, Juan F.; Albaran, Maria Isabel; Lima, Francisco Ramos; Pequeno, Belen; Ajenjo, Nuria; Becerra, Mercedes; Alfonso, Patricia; Reymundo, Maria Isabel; Palacios, Irene; Mateos, Genoveva; Quinones, Helena; Corrionero, Ana; Carnero, Amancio; Pevarello, Paolo; Lopez, Ana Rodriguez; Fominaya, Jesus; Pastor, Joaquin; Bischoff, James R. Cancer Letters (Shannon, Ireland) 2011, 300(2), 145-153

DU145 = assay: Combination assay, DU145; type: cell-based
Experimental: as §1
The EC50 values of representative combinations are also calculated. The individually measured EC50 values of the chemotherapeutic agent and the example compounds are compared to the EC50 value of the combination. The cell lines are characterised by tumor type. […] Blanco-Aparicio, Carmen; Collazo, Ana Maria Garcia; Oyarzabal, Julen; Leal, Juan F.; Albaran, Maria Isabel; Lima, Francisco Ramos; Pequeno, Belen; Ajenjo, Nuria; Becerra, Mercedes; Alfonso, Patricia; Reymundo, Maria Isabel; Palacios, Irene; Mateos, Genoveva; Quinones, Helena; Corrionero, Ana; Carnero, Amancio; Pevarello, Paolo; Lopez, Ana Rodriguez; Fominaya, Jesus; Pastor, Joaquin; Bischoff, James R. Cancer Letters (Shannon, Ireland) 2011, 300(2), 145-153

BXPC-3 = assay: Combination assay, BXPC-3; type: cell-based
Experimental: as §1, §2

[2] = SW620, combination with ABT-751
[3] = SW620, combination with Alisertib
[4] = SW620, combination with Crizotinib
[5] = SW620, combination with Elesclomol
[6] = SW620, combination with Oxaliplatin
[7] = HCT116, combination with Alisertib
[8] = HCT116, combination with Crizotinib
[9] = DU145, combination with Alisertib
[10] = DU145, combination with Crizotinib
[11] = BXPC-3, combination with Crizotinib
[12] = BXPC-3, combination with Elesclomol

With `CCn1c(C(N)=O)cc2c1-c1ccncc1OC2(C)C` [Example 43] the “target modulation in vivo, P-STAT1 (S727)” value [1] was “Clear target modulation is observed at 1 and 4 h”, the “Selectivity score S(20)” value (panel of 468 kinases) was 0.038 and the GI50 (SW620; Homo sapiens, SW-620, SW620, example compound alone, read-out: CDK8 inh GI50) was 4 µM. The “Combination index (CI)” value (SW620; [2]) was 0.18, the Synergy (SW620; [2]) was “+++ (0.1 < CI < 0.3 (+++))” and the “Combination index (CI)” value (SW620; [3]) was 0.52. The Synergy (SW620; [3]) was “++ (0.3 < CI < 0.7 (++))”, the “Combination index (CI)” value (SW620; [4]) was 0.65 and the Synergy (SW620; [4]) was “++ (0.3 < CI < 0.7 (++))”. The “Combination index (CI)” value (SW620; [5]) was 0.05, the Synergy (SW620; [5]) was “++++ (CI < 0.1 (++++))” and the “Combination index (CI)” value (SW620; [6]) was 0.53. For the same molecule, the Synergy (SW620; [6]) was “++ (0.3 < CI < 0.7 (++))”, the “Combination index (CI)” value (SW620; SW620, combination with Taxol) was 0.28 and the Synergy (SW620; SW620, combination with Taxol) was “+++ (0.1 < CI < 0.3 (+++))”. For the same molecule, the “Combination index (CI)” value (HCT116; [7]) was 0.64, the Synergy (HCT116; [7]) was “++ (0.3 < CI < 0.7 (++))” and the “Combination index (CI)” value (HCT116; [8]) was 0.58. For the same molecule, the Synergy (HCT116; [8]) was “++ (0.3 < CI < 0.7 (++))”, the “Combination index (CI)” value (HCT116; HCT116, combination with Taxol) was 0.63 and the Synergy (HCT116; HCT116, combination with Taxol) was “++ (0.3 < CI < 0.7 (++))”. For the same molecule, the GI50 (HCT116; Homo sapiens, HCT-116, HCT116, example compound alone, read-out: CDK8 inh GI50) was 5 µM, the “Combination index (CI)” value (DU145; [9]) was 0.65 and the Synergy (DU145; [9]) was “++ (0.3 < CI < 0.7 (++))”. The “Combination index (CI)” value (DU145; [10]) was 0.44, the Synergy (DU145; [10]) was “++ (0.3 < CI < 0.7 (++))” and the “Combination index (CI)” value (DU145; DU145, combination with Taxol) was 0.21. The Synergy (DU145; DU145, combination with Taxol) was “+++ (0.1 < CI < 0.3 (+++))”, the GI50 (DU145; Homo sapiens, DU-145, DU145, example compound alone, read-out: CDK8 inh GI50) was 5 µM and the “Combination index (CI)” value (BXPC-3; [11]) was 0.72. For the same molecule, the Synergy (BXPC-3; [11]) was “++ (0.3 < CI < 0.7 (++))”, the “Combination index (CI)” value (BXPC-3; [12]) was 0.25 and the Synergy (BXPC-3; [12]) was “++ (0.3 < CI < 0.7 (++))”. For the same molecule, the GI50 (BXPC-3; Homo sapiens, BXPC-3, example compound alone, read-out: CDK8 inh GI50) was 5 µM.
